Measured values: patent US20240300976A1, “COMPOUNDS AS MODULATORS OF ENDOPLASMIC RETICULUM AMINOPEPTIDASE 1 (ERAP1)” (GREY WOLF THERAPEUTICS LIMITED, priority 2020, published 2024)

Target: T1, ERAP1 (Homo sapiens, UniProt Q9NZ08)
T1 construct: Purified ERAP1(37-941)-10His (ERAP1); 10His (C)
Test: ERAP1 mediated hydrolysis of an amide substrate (10-mer inhibition assay), biochemical system
Details: 10-mer substrate, incubated at 23° C. for 1 h, excitation 279 nm and emission 355 nm; read-out: IC50 vs Decapeptide WRVYEKC(Dnp)ALK-acid (where Dnp is Dinitrophenyl maleimide) (10-mer)
Source text: This peptide has minimal fluorescence as the N-terminal tryptophan residue's fluorescence is quenched by the dinitrophenol (DNP) residue within the peptide. However, as ERAP1 hydrolyses the N-terminal amide bond and tryptophan is released this internal quenching is lost and the reaction is monitored by the increase in tryptophan fluorescence over the course of the assay. For the purposes of this application this assay is referred to as the “1 Omer inhibition assay” and compound potencies are calculated and expressed as 1050 as would be familiar to a person skilled in the art.
Biological Assay 1: ERAP1 Mediated Hydrolysis of an Amide Substrate Measured in a Biochemical System
• 1× Assay buffer (AB): 25 mM Bis-tris propane, 0.05% w/v Hydroxypropylmethylcellulose pH 7.75 made with Optima grade water • Decapeptide WRVYEKC(Dnp)ALK-acid (where Dnp is Dinitrophenyl maleimide) (10-mer) • L-Leucine 7-amido-4-methylcoumarin (L-AMC) • Purified ERAP1(37-941)-10His (ERAP1)
12.5 μL ERAP1 enzyme in 1×AB was combined with 250 nL test compound in DMSO. 12.5 μL of either 240 μM L-AMC in 1×AB or 100 μM 10-mer in 1×AB was added to the reaction and incubated at 23° C. for 1 h. For detection, plates were read at excitation 365 nm and emission 442 nm (L-AMC) or excitation 279 nm and emission 355 nm (10-mer). Compound IC50 was determined using a 4-parameter equation.

T1 sequence (Q9NZ08 37-941): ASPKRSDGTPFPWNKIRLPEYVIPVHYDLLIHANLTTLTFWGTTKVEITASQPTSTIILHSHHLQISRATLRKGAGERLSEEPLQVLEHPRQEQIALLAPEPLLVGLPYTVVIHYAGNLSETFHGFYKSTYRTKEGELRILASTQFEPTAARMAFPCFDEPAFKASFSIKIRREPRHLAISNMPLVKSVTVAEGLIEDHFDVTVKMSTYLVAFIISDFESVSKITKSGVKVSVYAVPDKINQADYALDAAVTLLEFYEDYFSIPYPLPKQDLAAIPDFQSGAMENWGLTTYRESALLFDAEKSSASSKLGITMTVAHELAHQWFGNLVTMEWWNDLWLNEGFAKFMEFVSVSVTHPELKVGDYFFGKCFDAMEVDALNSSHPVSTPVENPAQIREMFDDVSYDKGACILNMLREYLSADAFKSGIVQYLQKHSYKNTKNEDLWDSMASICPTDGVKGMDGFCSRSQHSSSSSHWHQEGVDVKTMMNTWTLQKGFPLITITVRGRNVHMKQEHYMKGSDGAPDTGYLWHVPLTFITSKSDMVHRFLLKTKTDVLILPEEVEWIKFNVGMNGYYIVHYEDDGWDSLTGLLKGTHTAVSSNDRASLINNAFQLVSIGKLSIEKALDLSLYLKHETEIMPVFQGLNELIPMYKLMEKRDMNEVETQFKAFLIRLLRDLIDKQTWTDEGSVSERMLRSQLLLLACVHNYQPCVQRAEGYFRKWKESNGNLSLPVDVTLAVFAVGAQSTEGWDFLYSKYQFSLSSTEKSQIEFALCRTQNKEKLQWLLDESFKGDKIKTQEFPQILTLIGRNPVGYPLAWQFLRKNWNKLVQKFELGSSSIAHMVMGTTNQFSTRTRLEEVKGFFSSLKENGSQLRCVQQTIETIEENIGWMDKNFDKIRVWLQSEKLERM

IC50 [nM] | SMILES
> 1000 | N#Cc1cc2c(cc1F)N1CCCCC1COc1ccc(C(=O)O)cc1S(=O)(=O)N2 (single isomer, unassigned) [Example 37, 8-cyano-9-fluoro-12,13,14,15,15a,16-hexahydro-6H-dibenzo[b,f]pyrido[1,2-h][1,4,5,8]oxathiadiazecine-3-carboxylic acid 5,5-dioxide]
< 250 | N#Cc1cc2c(cc1F)N1CCCCC1COc1ccc(C(=O)O)cc1S(=O)(=O)N2 (single isomer, unassigned) [Example 38, 8-cyano-9-fluoro-12,13,14,15,15a,16-hexahydro-6H-dibenzo[b,f]pyrido[1,2-h][1,4,5,8]oxathiadiazecine-3-carboxylic acid 5,5-dioxide]
< 250 | CS(=O)(=O)c1cc2c(cc1F)N1CCCCC1COc1ccc(C(=O)O)cc1S(=O)(=O)N2 (single isomer, unassigned) [Example 39, 9-fluoro-8-(methylsulfonyl)-12,13,14,15,15a,16-hexahydro-6H-dibenzo[b,f]pyrido[1,2-h][1,4,5,8]oxathiadiazecine-3-carboxylic acid 5,5-dioxide]
> 1000 | CS(=O)(=O)c1cc2c(cc1F)N1CCCCC1COc1ccc(C(=O)O)cc1S(=O)(=O)N2 (single isomer, unassigned) [Example 40, 9-fluoro-8-(methylsulfonyl)-12,13,14,15,15a,16-hexahydro-6H-dibenzo[b,f]pyrido[1,2-h][1,4,5,8]oxathiadiazecine-3-carboxylic acid 5,5-dioxide]
< 250 | N#Cc1cc2c(cc1F)N1CCCCC1CCCOc1ccc(C(=O)O)cc1S(=O)(=O)N2 (single isomer, unassigned) [Example 41, 2-cyano-3-fluoro-6,7,8,9,9a,10,11,12-octahydro-19H-dibenzo[b,f]pyrido[1,2-h][1]oxa[4]thia[5,8]diazacyclododecine-16-carboxylic acid 18,18-dioxide]
< 250 | N#Cc1cc2c(cc1F)N1CCCCC1CCCOc1ccc(C(=O)O)cc1S(=O)(=O)N2 (single isomer, unassigned) [Example 42, 2-cyano-3-fluoro-6,7,8,9,9a,10,11,12-octahydro-19H-dibenzo[b,f]pyrido[1,2-h][1]oxa[4]thia[5,8]diazacyclododecine-16-carboxylic acid 18,18-dioxide]
< 250 | CS(=O)(=O)c1cc2c(cc1F)N1CCCCC1CCCCOc1ccc(C(=O)O)cc1S(=O)(=O)N2 (single isomer, unassigned) [Example 43, 3-fluoro-2-(methylsulfonyl)-7,8,9,9a,10,11,12,13-octahydro-6H, 20H-dibenzo[b,f]pyrido[1,2-h][1]oxa[4]thia[5,8]diazacyclotridecine-17-carboxylic acid 19,19-dioxide]
250 to 1000 | CS(=O)(=O)c1cc2c(cc1F)N1CCCCC1CCCCOc1ccc(C(=O)O)cc1S(=O)(=O)N2 (single isomer, unassigned) [Example 44, 3-fluoro-2-(methylsulfonyl)-7,8,9,9a,10,11,12,13-octahydro-6H, 20H-dibenzo[b,f]pyrido[1,2-h][1]oxa[4]thia[5,8]diazacyclotridecine-17-carboxylic acid 19,19-dioxide]
< 250 | N#Cc1cc2c(cc1Cl)N1CCCCC1C/C=C/COc1ccc(C(=O)O)cc1S(=O)(=O)N2 (single isomer, unassigned) [Example 45, (E)-3-chloro-2-cyano-7,8,9,9a,10,13-hexahydro-6H, 20H-dibenzo[b,f]pyrido[1,2-h][1]oxa[4]thia[5,8]diazacyclotridecine-17-carboxylic acid 19,19-dioxide]
< 250 | N#Cc1cc2c(cc1Cl)N1CCCCC1C/C=C/COc1ccc(C(=O)O)cc1S(=O)(=O)N2 (single isomer, unassigned) [Example 46, (E)-3-chloro-2-cyano-7,8,9,9a,10,13-hexahydro-6H, 20H-dibenzo[b,f]pyrido[1,2-h][1]oxa[4]thia[5,8]diazacyclotridecine-17-carboxylic acid 19,19-dioxide]
250 to 1000 | N#Cc1cc2c(cc1Cl)N1CCCCC1/C=C/COc1ccc(C(=O)O)cc1S(=O)(=O)N2 (single isomer, unassigned) [Example 47, (E)-3-chloro-2-cyano-6,7,8,9,9a,12-hexahydro-19H-dibenzo[b,f]pyrido[1,2-h][1]oxa[4]thia[5,8]diazacyclododecine-16-carboxylic acid 18,18-dioxide]
< 250 | N#Cc1cc2c(cc1Cl)N1CCCCC1/C=C/COc1ccc(C(=O)O)cc1S(=O)(=O)N2 (single isomer, unassigned) [Example 48, (E)-3-chloro-2-cyano-6,7,8,9,9a,12-hexahydro-19H-dibenzo[b,f]pyrido[1,2-h][1]oxa[4]thia[5,8]diazacyclododecine-16-carboxylic acid 18,18-dioxide]
< 250 | CS(=O)(=O)c1ccc2c(c1)NS(=O)(=O)c1cc(C(=O)O)ccc1OCCCC1CCCCN21 (single isomer, unassigned) [Example 49, 2-(methylsulfonyl)-6,7,8,9,9a,10,11,12-octahydro-19H-dibenzo[b,f]pyrido[1,2-h][1]oxa[4]thia[5,8]diazacyclododecine-16-carboxylic acid 18,18-dioxide]
250 to 1000 | CS(=O)(=O)c1ccc2c(c1)NS(=O)(=O)c1cc(C(=O)O)ccc1OCCCC1CCCCN21 (single isomer, unassigned) [Example 50, 2-(methylsulfonyl)-6,7,8,9,9a,10,11,12-octahydro-19H-dibenzo[b,f]pyrido[1,2-h][1]oxa[4]thia[5,8]diazacyclododecine-16-carboxylic acid 18,18-dioxide]
< 250 | N#Cc1cc2c(cc1F)N1CCCCC1CCCCOc1ccc(C(=O)O)cc1S(=O)(=O)N2 (single isomer, unassigned) [Example 55, 2-cyano-3-fluoro-7,8,9,9a,10,11,12,13-octahydro-6H,20H-dibenzo[b,f]pyrido[1,2-h][1]oxa[4]thia[5,8]diazacyclotridecine-17-carboxylic acid 19,19-dioxide]
< 250 | N#Cc1cc2c(cc1F)N1CCCCC1CCCCOc1ccc(C(=O)O)cc1S(=O)(=O)N2 (single isomer, unassigned) [Example 56, 2-cyano-3-fluoro-7,8,9,9a,10,11,12,13-octahydro-6H,20H-dibenzo[b,f]pyrido[1,2-h][1]oxa[4]thia[5,8]diazacyclotridecine-17-carboxylic acid 19,19-dioxide]
> 1000 | CS(=O)(=O)NC(=O)c1ccc2c(c1)S(=O)(=O)Nc1cc(C#N)c(Cl)cc1N1CCCC[C@H]1/C=C/CO2 (single isomer, unassigned) [Example 58]
> 1000 | CS(=O)(=O)NC(=O)c1ccc2c(c1)S(=O)(=O)Nc1cc(C#N)c(Cl)cc1N1CCCCC1C/C=C/CO2 (single isomer, unassigned) [Example 62]
< 250 | N#Cc1cc2c(cc1Cl)N1CCCC[C@@H]1COCCOc1ccc(C(=O)O)cc1S(=O)(=O)N2 (single isomer, unassigned) [Example 67]
< 250 | N#Cc1cc2c(cc1Cl)N1CCCC[C@H]1COCCOc1ccc(C(=O)O)cc1S(=O)(=O)N2 (single isomer, unassigned) [Example 68]
< 250 | N#Cc1ccc2c(c1)NS(=O)(=O)c1cc(C(=O)O)ccc1OCCCC1CCCCN21 (stereo not shown) [Example 5, 2-cyano-6,7,8,9,9a,10,11,12-octahydro-19H-dibenzo[b,f]pyrido[1,2-h][1]oxa[4]thia[5,8]diazacyclododecine-16-carboxylic acid 18,18-dioxide]
< 250 | N#Cc1cc2c(cc1Cl)N1CCCC[C@@H]1CCCCOc1ccc(C(=O)O)cc1S(=O)(=O)N2 [Example 52, (R)-3-chloro-2-cyano-7,8,9,9a,10,11,12,13-octahydro-6H,20H-dibenzo[b,f]pyrido[1,2-h][1]oxa[4]thia[5,8]diazacyclotridecine-17-carboxylic acid 19,19-dioxide]
< 250 | N#Cc1cc2c(cc1Cl)N1CCCC[C@H]1CCCCOc1ccc(C(=O)O)cc1S(=O)(=O)N2 [Example 53, (S)-3-chloro-2-cyano-7,8,9,9a,10,11,12,13-octahydro-6H, 20H-dibenzo[b,f]pyrido[1,2-h][1]oxa[4]thia[5,8]diazacyclotridecine-17-carboxylic acid 19,19-dioxide]
< 250 | N#Cc1cc2c(cc1F)N1CCCC[C@H]1CCCCOc1ccc(C(=O)O)cc1S(=O)(=O)N2 [Example 57, (S)-2-cyano-3-fluoro-7,8,9,9a,10,11,12,13-octahydro-6H, 20H-dibenzo[b,f]pyrido[1,2-h][1]oxa[4]thia[5,8]diazacyclotridecine-17-carboxylic acid 19,19-dioxide]
< 250 | N#Cc1cc2c(cc1Cl)N1CCCC[C@@H]1CCCOc1ccc(C(=O)O)cc1S(=O)(=O)N2 [Example 59, (R)-3-chloro-2-cyano-6,7,8,9,9a,10,11,12-octahydro-19H-dibenzo[b,f]pyrido[1,2-h][1]oxa[4]thia[5,8]diazacyclododecine-16-carboxylic acid 18,18-dioxide]
